Source: patent US7943633B2, “Alkaloid compounds and their use as anti-malarial drugs” (Universite Pierre et Marie Curie (Paris VI), priority 2004, dated 2011)
Where “and” joins values, the source holds several entries; their conditions need not be identical. Identical values can stand only once. Like-named read-outs stand apart in the source and are kept apart here.

Assays:
[1] = In vitro cytotoxicity, neutral red, KB cells; type: cell-based; settings: human, KB carcinoma cells (ATCC CCL-17), 72 hours incubation, read-out: CI50 cytotoxicity KB (converted)
Procedure: (§1) Stock solutions of testing compounds were prepared in H2O/DMSO (9/1).
(§2) After an incubation of 72 hours at 37° C. under a 5% CO2 atmosphere, 0.02% of neutral red in PBS was added.
(§3) 24 hours later, culture media were eliminated and cell membranes were lysed by addition of 1% of SDS in water.
(§4) Cell growth was estimated by colorimetric measurement of stained living cells, incorporating neutral red. Optical density was determined at 540 nm on a Titertek Multiskan photometer.
(§5) The Cl50 value was defined as the concentration of compound necessary to inhibit the cell growth to 50% of the control.

[2] = In vitro cytotoxicity, neutral red, HT29 cells; type: cell-based; settings: human, HT29 colon tumor cells (ATCC HTB-38), 72 hours incubation, read-out: CI50 cytotoxicity HT29 (converted)
Procedure: as §1, §2, §3, §4, §5

[3] = tested on: Plasmodium yoelii yoelii 265BY; assay: In vitro inhibition of P. yoelii yoelii 265BY growth (hepatic stage) in primary murine hepatocytes; type: cell-based; settings: for IC50: Plasmodium yoelii, Hepatocyte, read-out: CI50 activity P. yoelii 265BY; for Selectivity index CI50 KB/CI50 yoelii: ratio between CI50 of cytotoxicity (KB) and CI50 of anti-malarial activity
Procedure: Primary cultures of mouse hepatocytes were isolated from livers of Swiss mice which were 6 to 8 weeks old by perfusion with collagenase (1 g/L) and purified through a 60% Percoll gradient.
The hepatocytes were cultured in sterile chambers (Lab-Tek) at the rate of 90,000 cells in 0.3 mL of complete culture medium as defined thereafter per well and incubated overnight at 37° C. under a 4% CO2 atmosphere. The hepatocytes' complet culture medium was Williams' E culture medium supplemented with 10% of decomplemented foetal calf serum, 1% glutamine, 1% Na pyruvate, 1% of a mixture of insulin, transferrine and selenium, 1% of non-essential amino-acids and with an antibiotic mixture comprising 1% of a solution of penicillin and streptomycine, 1% augmentin and […] flucytosine.
The parasites infecting the hepatocytes; i.e. the sporozoites, were recovered by dissection of infected anopheles mosquitoes salivary glands.
After grinding them in a Potter grinder with culture medium, the suspension was filtered on a 40 μm mesh filter and centrifuged (15,000 rpm) at 4° C. for 2 mn. The pellet was reintroduced in the complete culture medium. The sporozoites were then counted in a “Cell Vu” counter (CML) and the concentration was adjusted at 100,000 sporozoites per 70 μL, concentration needed for infection.
One day after, the hepatocytes were infected by the above sporozoites from salivary glands of infected anopheles mosquitoes at the rate of 100,000 sporozoites per well in the presence or absence of the product to be tested. When the infection had appeared, the medium was supplemented with 10^−7 M dexamethasone. The products were first solubilized in DMSO.
The infected hepatocytes were washed and fed with culture medium containing the test product, 3 hours and then 24 hours after the infection.
The cultures were stopped by treatment with a cold fixative methanol solution, 48 hours after the infection.
Parasites obtained in schizont stage were immunomarked firstly, with a serum isolated from BALB/c mice immunized with a recombinant fragment from the N-terminal of the recombinant protein I72 that reacted against HSP70 of Plasmodium and secondly with an antibody—a mouse anti-immunoglobulin—conjugated to FITC. Evans Blue and DAPI, a nucleic acid marker, were added to the hepatocytes simultaneously. The schizonts were then counted with a fluorescent microscope.
(§6) The Cl50 value (concentration causing 50% of inhibition in the number of parasites compared to controls wells, non treated) is the mean value of 3 independent evaluations through StatView SI Graphics.

[4] = tested on: Plasmodium falciparum NF54; assay: In vitro inhibition of P. falciparum NF54 (hepatic stage) in human hepatocytes; type: cell-based; settings: NF54, Hepatocyte, 120 h, fixed 5 days after infection, read-out: CI50 activity P. falciparum NF54
Procedure: B—Human Model: Hepatic Stage of Plasmodium falciparum NF54
Human hepatocytes were obtained by enzymatic perfusion of fragments of liver of human adults which were submitted to partial hepatectomy.
The hepatocytes were infected at 24 hours of their culture by sporozoites obtained from salivary glands of P. falciparum infecting anopheles mosquitoes stephensi (Lab. of Pr. W. Eling, Univ. Of Nijmegen, NL).
The culture medium containing the test product was changed 3 hours after infection, and then renewed at least, each 24 hours during the experiment.
The cultures were fixed 5 days after infection, with the same method as described for the murine hepatocytes.
as §6

[5] = tested on: Plasmodium yoelii yoelii 265BY; assay: In vivo antimalarial activity in Swiss mice infected with sporozoites; settings: for number of parasited red blood cells (parasitemia): compared to control group; for Number of parasited mice/total mice: 100 mg/kg fed four times
Procedure: 40 Swiss mice (six week old) have been subjected to the in vivo assay. They have been allotted in two groups: • a group of 20 mice were fed with compound (1) diluted in sterile water at a dose of 100 mg/kg four times; 24 hours and 1 hour before infection, 24 hours and 40 hours after infection during the hepatic stage period. • a control group of 20 mice were fed with sterile water at the same times.
The infection has been performed by retro-orbital injection of 4,000 sporozoites of Plasmodium yoelii yoelii 265BY in 100 μl phospate-buffered saline per mouse.
The parasitemia was monitored from the third day after the infection D3 when the parasites are liberated from the liver and enter into the blood circulation and each day until the 23rd day D23 after infection. The monitoring was performed by blood smears taken from the tail vein of the mice. The smears were stained with Giemsa and parasited red blood cells were counted with a microscope.
The parasitemia was calculated according to the following formula: Parasited red blood cell number×100/total red blood cell number.

Structure (SMILES)	IC50 at 72 h [1]	IC50 at 72 h [2]	Selectivity index CI50 KB/CI50 yoelii [3]	IC50 ([3]; 48 h)	also measured
O=c1[nH]cc(F)c(=O)[nH]1 [5-fluorouracile, reference compound]	0.047 µg/mL and 360 nM	54.9 µg/mL and 422 µM	–	–	–
O=C1C(O)=C([C@H]2CC[C@H](c3ccc(Cl)cc3)CC2)C(=O)c2ccccc21 [Atovaquone, atovaquone, reference compound]	18.6 µg/mL and 50.8 µM	44.6 µg/mL and 122 µM	891.2	–	IC50 ([3]; murine hepatocytes, schizonts counted 48 hours after infection, mean of 3 evaluations): 0.021 µg/mL; IC50 ([3]; murine hepatocytes, schizonts counted 48 hours after infection): 57 nM
COC1=C2[C@H]3NCC[C@]2(C[C@H](O)[C@@H]1O)c1c(ccc(OC)c1O)[C@H]3O [Compound (1), 4,6,7,10-tetrahydroxy-8,14-didehydro-3,8-dimethoxy-morphinan]	1.99 µg/mL and 5.7 µM	22 µg/mL and 63 µM	1.8	1.08 µg/mL and 3.1 µM	IC50 [4]: 1.51 µg/mL and 4.3 µM; number of parasited red blood cells (parasitemia) ([5]; 100 mg/kg): reduces parasitemia; number of parasited red blood cells (parasitemia) ([5]; 100 mg/kg, listed as compound (1)): significant decrease; total protection against malaria infection in mice ([5]; 100 mg/kg, oral administration): 70%; survival of mice at D23 ([5]; 100 mg/kg, control group 75%): 90%; delay of parasitemia for treated mice not protected, compared to control ([5]; 100 mg/kg, the 30% of treated mice not protected): ≥ 3 days; Number of parasited mice/total mice ([5]; D3 post-infection): 0/20; Number of parasited mice/total mice ([5]; D4 post-infection): 0/20; Number of parasited mice/total mice ([5]; D5 post-infection): 0/20; Number of parasited mice/total mice ([5]; D6 post-infection): 1/20; Number of parasited mice/total mice ([5]; D7 post-infection): 4/20; Number of parasited mice/total mice ([5]; D8 post-infection): 6/20; Number of parasited mice/total mice ([5]; D23 post-infection): 6/18
COC1=C2[C@@H]3Cc4ccc(OC)c(O)c4[C@]2(CCN3)C[C@H](O)[C@@H]1O [Compound (2), 4,6,7-trihydroxy-8,14-didehydro-3,8-dimethoxy-morphinan]	1.3 µg/mL and 3.9 µM	12.2 µg/mL and 36.8 µM	0.9	1.5 µg/mL and 4.5 µM	IC50 [4]: 3.36 µg/mL and 10.1 µM
COC1=C2[C@@H]3[C@H](O)c4ccc(OC)c(O)c4[C@]2(CCN3C)C[C@H](O)[C@@H]1O [Compound (3), N-methyl-4,6,7,10-tetrahydroxy-8,14, didehydro-3,8-dimethoxy-morphinan]	32.3 µg/mL and 89 µM	> 80 µg/mL and > 220 µM	15.5	2.09 µg/mL and 5.8 µM	–
CCCN1CC[C@@]23C[C@H](O)[C@H](O)C(OC)=C2[C@@H]1[C@H](O)c1ccc(OC)c(O)c13 [Compound (4), N-propyl-4,6,7,10-tetrahydroxy-8,14, didehydro-3,8-dimethoxy-morphinan]	40.4 µg/mL and 103 µM	> 80 µg/mL and > 204 µM	8.2	4.93 µg/mL and 12.6 µM	–
COC1=C2[C@@H]3[C@H](O)c4ccc(OC)c(O)c4[C@]2(CCN3Cc2ccc(OC)cc2)C[C@H](O)[C@@H]1O [Compound (5), N-4-methoxybenzyl-4,6,7,10-tetrahydroxy-8,14, didehydro-3,8-dimethoxy-morphinan]	21.2 µg/mL and 45.3 µM	> 80 µg/mL and > 170 µM	1.9	11.4 µg/mL and 24.2 µM	–
COC1=C2[C@@H]3[C@H](O)c4ccc(OC)c(O)c4[C@]2(CCN3Cc2ccc(O)cc2)C[C@H](O)[C@@H]1O [Compound (6), N-4-hydroxybenzyl-4,6,7,10-tetrahydroxy-8,14, didehydro-3,8-dimethoxy-morphinan]	9.53 µg/mL and 20.9 µM	49 µg/mL and 108 µM	1.5	6.44 µg/mL and 14.2 µM	–
COC1=C2[C@@H]3[C@H](O)c4ccc(OC)c(O)c4[C@]2(CCN3Cc2ccc(Br)cc2)C[C@H](O)[C@@H]1O [Compound (7), N-4-bromobenzyl-4,6,7,10-tetrahydroxy-8,14, didehydro-3,8-dimethoxy-morphinan]	15.8 µg/mL and 30.5 µM	> 80 µg/mL and > 154 µM	7.3	2.19 µg/mL and 4.2 µM	–
COC1=C2[C@@H]3[C@H](O)c4ccc(OC)c(O)c4[C@]2(CCN3C2CCCC2)C[C@H](O)[C@@H]1O [Compound (8), N-cyclopentyl-4,6,7,10-tetrahydroxy-8,14, didehydro-3,8-dimethoxy-morphinan]	27.6 µg/mL and 66.3 µM	> 80 µg/mL and > 192 µM	18.9	1.46 µg/mL and 3.5 µM	–
CC[C@]1(O)C[C@@H]2CN(CCc3c([nH]c4ccccc34)[C@@](C(=O)OC)(c3cc4c(cc3OC)N(C)[C@H]3[C@@](O)(C(=O)OC)[C@H](OC(C)=O)[C@]5(CC)C=CCN6CC[C@]43[C@@H]65)C2)C1 [Vinblastine, vinblastine, reference compound]	0.018 µg/mL and 22 nM	0.008 µg/mL and 9.9 nM	–	–	–
COc1cc(NC(C)CCCN)c2ncccc2c1 (centres unmarked) [primaquine, reference compound]	2 µg/mL and 7 µM	20.1 µg/mL and 70.5 µM	11.7	0.16 µg/mL and 600 nM	–
